Key:
[1] = test system: wt influenza virus (A/Udorn/72); format: cell-based
A/M2 wt channel [2] = target: T1, A/M2 wt channel (Influenza A virus, UniProt P0DOF5); conditions: cited from earlier work
[3] = target: T2, transmembrane domain of wt A/M2 protein (M2TM, residues 22–46) (Influenza A virus, UniProt P0DOF5); format: binding; conditions: pH 7.4
T2 sequence (P0DOF5 22-46 limits assumed): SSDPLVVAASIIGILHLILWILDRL

A/M2 wt channel [4] = target: T1, A/M2 wt channel; format: cell-based

T1 sequence (P0DOF5 whole entry, the tested form may be a part): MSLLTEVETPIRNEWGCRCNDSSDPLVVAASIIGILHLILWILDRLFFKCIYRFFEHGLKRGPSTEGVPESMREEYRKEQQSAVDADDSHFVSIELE

Row | Compound | concentrations at which plaque formation was inhibited [1] | dissociation rate constant (κoff) (A/M2 wt channel [2]) | second-order rate constant (κon) for association and inhibition (A/M2 wt channel [2]) | Kd [3] | % remaining activity after application of 100 μM compound (A/M2 wt channel [4]) | voltage dependence of inhibition (A/M2 wt channel [4]) | IC50 (A/M2 wt channel [4]; pH 5.5) | reversibility of inhibition / washout rate (A/M2 wt channel [4]; pH 8.5) | activity (A/M2 wt channel [4]; read-out: AM2 channel activity after 100μM compound inhibition) | reversal of inhibition in the time frame of 5 min (A/M2 wt channel [4]; pH 8.5)
1 | C1CCC2(CC1)CCN(C1=NCCN1)CC2 [BL-1743, 2-[3-azaspiro([5],[5])undecanol]-2-imidazoline] | 50 to 100 µM | 10^−3 s^−1 | 720 M⁻¹ s⁻¹ | 194 µM | 25.3±1.3% | voltage-independence | 45.3 ± 3.92 µM | essentially fully reversible | 25% | 
2 | NC12CC3CC(CC(C3)C1)C2 [Amantadine, amantadine] |  | 10^−4 s^−1 |  |  |  | voltage-independence |  |  |  | about 10%
3 | NC1CCC2(CCCCC2)CC1 [Compound 8, spiro[5.5]undecan-3-amine] |  |  |  |  |  | voltage-independence |  | not significantly different from that of amantadine |  | 
